The values that follow come from US11766434B2, “Pyrimidinone derivatives as CDC7 inhibitors” (Cancer Research Technology Limited, priority 2016, dated 2023).

Chain of Cdc7 (O00311 whole entry): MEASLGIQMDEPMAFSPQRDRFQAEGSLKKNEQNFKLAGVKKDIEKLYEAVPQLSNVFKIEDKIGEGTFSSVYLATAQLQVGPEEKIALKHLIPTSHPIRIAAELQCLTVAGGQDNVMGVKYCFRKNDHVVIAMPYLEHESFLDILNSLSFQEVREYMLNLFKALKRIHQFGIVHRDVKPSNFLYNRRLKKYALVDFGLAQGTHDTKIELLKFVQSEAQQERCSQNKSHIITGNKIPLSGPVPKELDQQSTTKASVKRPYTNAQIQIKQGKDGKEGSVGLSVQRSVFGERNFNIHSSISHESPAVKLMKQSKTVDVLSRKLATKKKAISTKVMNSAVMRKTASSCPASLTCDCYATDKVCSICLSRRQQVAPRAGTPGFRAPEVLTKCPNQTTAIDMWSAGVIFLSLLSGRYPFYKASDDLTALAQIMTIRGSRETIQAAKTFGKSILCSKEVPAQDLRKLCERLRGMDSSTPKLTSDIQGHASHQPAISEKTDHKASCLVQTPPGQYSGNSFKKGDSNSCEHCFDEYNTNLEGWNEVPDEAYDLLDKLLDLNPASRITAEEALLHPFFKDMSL
Chain of Cdc7 (Q9UBU7 whole entry partner): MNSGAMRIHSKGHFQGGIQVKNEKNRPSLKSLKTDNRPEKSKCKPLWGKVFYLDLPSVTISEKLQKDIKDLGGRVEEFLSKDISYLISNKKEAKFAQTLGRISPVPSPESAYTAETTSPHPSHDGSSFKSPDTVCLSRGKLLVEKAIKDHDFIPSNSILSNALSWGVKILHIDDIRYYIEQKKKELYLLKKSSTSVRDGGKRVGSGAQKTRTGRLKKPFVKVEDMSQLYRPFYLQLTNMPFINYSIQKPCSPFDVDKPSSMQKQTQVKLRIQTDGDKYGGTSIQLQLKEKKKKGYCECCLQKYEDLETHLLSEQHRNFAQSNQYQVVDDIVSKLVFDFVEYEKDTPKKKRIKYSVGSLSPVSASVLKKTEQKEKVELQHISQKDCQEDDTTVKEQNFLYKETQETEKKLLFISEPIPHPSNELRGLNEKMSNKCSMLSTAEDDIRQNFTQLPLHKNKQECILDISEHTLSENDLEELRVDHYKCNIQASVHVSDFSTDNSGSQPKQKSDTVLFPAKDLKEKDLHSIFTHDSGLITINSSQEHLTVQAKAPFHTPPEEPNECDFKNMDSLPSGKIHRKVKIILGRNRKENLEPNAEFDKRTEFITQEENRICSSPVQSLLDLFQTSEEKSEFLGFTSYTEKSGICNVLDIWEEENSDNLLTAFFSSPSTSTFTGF

The target in this assay is Cdc7 (Homo sapiens, UniProt O00311). In words: Cdc7 cell pharmacodynamics assay Method 3: pS53MCM2 levels in SW48 cells. The assay is classed as cell-based. More on the design: endogenous in cells; host or cells: SW48. The following applies: 6 hours treatment, read-out: Biomarker Method 3 (pEC50) (converted). Summed up:
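SW48 cells (30,000/well) settled overnight, then compound-treated 6 h at 37 °C. Lysates captured on total-MCM2 antibody plates overnight at 4 °C; pMCM2 Ser53 detected with rabbit antibody plus HRP anti-rabbit and chemiluminescent substrate, luminescence read.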
In the case of `O=c1[nH]c(-c2scnc2Cl)nc(C2CCOCC2)c1Cl` [Compound 4, 5-chloro-2-(4-chlorothiazol-5-yl)-4-tetrahydropyran-4-yl-1H-pyrimidin-6-one], the EC50 was 1480 nM. For the compound `Cc1ncsc1-c1nc(C2CCOCC2)c(Cl)c(=O)[nH]1` [Compound 6, 5-chloro-2-(4-methylthiazol-5-yl)-4-tetrahydropyran-4-yl-1H-pyrimidin-6-one], the EC50 was 2090 nM.

For `O=c1[nH]c(-c2scnc2C(F)(F)F)nc(C2CCOCC2)c1Cl` [Compound 14, 5-chloro-4-tetrahydropyran-4-yl-2-[4-(trifluoromethyl)thiazol-5-yl]-1H-pyrimidin-6-one], the EC50 was 2450 nM. To `Cc1ncsc1-c1nc(N2CCN[C@@H](C(F)(F)F)C2)c(Cl)c(=O)[nH]1` [Compound 28, 5-chloro-2-(4-methylthiazol-5-yl)-4-[(3R)-3-(trifluoromethyl)piperazin-1-yl]-1H-pyrimidin-6-one] belongs 1100 nM.

Regarding `C[C@@H]1COCCN1c1nc(-c2cn[nH]c2C(F)(F)F)[nH]c(=O)c1Cl` [Compound 41, 5-chloro-4-[(3R)-3-methylmorpholin-4-yl]-2-[5-(trifluoromethyl)-1H-pyrazol-4-yl]-1H-pyrimidin-6-one], the EC50 is 316 nM. Take `C[C@@H]1CNCCN1c1nc(-c2cn[nH]c2Cl)[nH]c(=O)c1Cl` [Compound 43, 5-chloro-2-(5-chloro-1H-pyrazol-4-yl)-4-[(2R)-2-methylpiperazin-1-yl]-1H-pyrimidin-6-one]: the EC50 is 347 nM. On to `C[C@@H]1CNCCN1c1nc(-c2cn[nH]c2C(F)(F)F)[nH]c(=O)c1Cl` [Compound 44, 5-chloro-4-[(2R)-2-methylpiperazin-1-yl]-2-[5-(trifluoromethyl)-1H-pyrazol-4-yl]-1H-pyrimidin-6-one], for which the EC50 was 724 nM.
